“Also recorded” adds a separate entry of the source.
Key:
MCMV = MCMV replication in MEFs, cell-free virus by TCID50; assay type: cell-based, murine cytomegalovirus; conditions: wild-type MEFs; 0.05 PFU/cell; rapamycin 20 nM, Torin1 250 nM
HCMV [1] = experiment: HCMV multistep growth in serum-starved human fibroblasts, cell-free virus by TCID50; assay type: cell-based, human cytomegalovirus; conditions: day 10; 0.05 PFU/cell; rapamycin 20 nM, Torin1 250 nM
PI3Ks = conditions: cited from earlier work
mTOR = mTOR (Homo sapiens, UniProt P42345); conditions: read-out: IC50 of selective mTOR inhibitor; cited from earlier work
[2] = system: panel of 140 protein kinases; conditions: read-out: IC50 against panel of 140 protein kinases; cited from earlier work
human fibroblasts = experiment: trypan blue exclusion viability of confluent human fibroblasts treated with 4-PBA; assay type: cell-based; conditions: 8 days; up to highest dose tested
Procedure: (§1) FIG. 11. 4-PBA is not toxic to uninfected or infected confluent human fibroblasts. (A) Fibroblasts were maintained in medium containing the indicated concentrations of 4-PBA for 8 days. The medium was replaced every other day throughout the time course. At the end of the treatment period, cell viability was measured by the trypan blue exclusion assay. Date points represent the mean of duplicate wells. (B) Fibroblasts were infected with HCMV at a multiplicity of 0.1 pfu/cell. Cells were fed every other day with fresh medium containing the indicated concentration of 4-PBA. At eight days post infection, cells were washed once with media, and then media lacking drug was added. Eight days later (16 days post infection) cell free virus in the supernatant was quantitated by the TCID50 method. Date points represent the mean of duplicate wells.
(§2) Two experiments were performed to rule out the possibility that 4-PBA is simply toxic to the cells and inhibits HCMV indirectly by reducing cell viability (FIG. 11). In the first experiment (FIG. 11A) an assay for cell viability was performed on confluent human fibroblasts treated for eight days with different concentrations of the drug. […] Then the drug was removed and the yield of virus was determined 8 days later.

HCMV [3] = experiment: 4-PBA reversibility: HCMV yield 8 days after drug removal, TCID50; assay type: cell-based, human cytomegalovirus; conditions: all doses tested; 8-day treatment; 16 days post infection
Procedure: as §1, §2

HCMV strain AD169 = experiment: HCMV AD169 replication in human fibroblasts treated with 4-PBA, TCID50; assay type: cell-based, human cytomegalovirus; conditions: 0.1 pfu/cell; day 8 post infection; range of 4-PBA doses
Source text: FIG. 10. 4-PBA inhibits HCMV replication in a dose-dependent manner. […] The medium with drug was replaced every other day. Cell-free and cell-associated virus was collected on day 8 post infection and titered by the TCID50 method. Data represent the log mean titer of duplicate samples.
To explore the hypothesis that HCMV might actually require the UPR to occur in order to maintain cellular homeostasis despite high levels of expression of viral glycoproteins, HCMV-infected human fibroblasts (HFFs) were treated with an inhibitor of the UPR, the chemical chaperone sodium 4-phenylbutyrate (4-PBA).

CO[C@H]1C[C@@H]2CC[C@@H](C)[C@@](O)(O2)C(=O)C(=O)N2CCCC[C@H]2C(=O)O[C@H]([C@H](C)C[C@@H]2CC[C@@H](O)[C@H](OC)C2)CC(=O)[C@H](C)/C=C(\C)[C@@H](O)[C@@H](OC)C(=O)[C@H](C)C[C@H](C)/C=C/C=C/C=C/1C [rapamycin]
MCMV replication (MCMV): no inhibitory effect | reduction of HCMV yield (HCMV [1]): ~8 fold

CNC(=O)Nc1ccc(-c2nc(N3CC4CCC(C3)O4)c3cnn(C4CCC5(CC4)OCCO5)c3n2)cc1 [WYE-125132]
fold selective versus PI3Ks (PI3K) (PI3Ks): > 5,000 fold | IC50 (mTOR): 0.19 nM

O=C(Nc1ccc(-c2nc(N3CC4CCC(C3)O4)c3sccc3n2)cc1)NC1CC1 [Wyeth-BMCL-200910075-9b]
fold selective versus PI3Ks (PI3K) (PI3Ks): > 1,000 fold | IC50 (mTOR): 0.7 nM

COC(=O)Nc1ccc(-c2nc(N3CCOCC3)c3cnn(C4CCN(C(=O)OC)CC4)c3n2)cc1 [WYE354]
IC50 (mTOR): 5 nM

Cc1c(C(=O)N2CCOc3ccc(-c4ccc(N)nc4)cc3C2)ccc(S(C)(=O)=O)c1F [XL388]
IC50 [2]: > 3000 nM

O=C([O-])CCCc1ccccc1.[Na+] [4-PBA, sodium 4-phenylbutyrate]
cellular viability / toxicity, trypan blue exclusion (human fibroblasts): no effect on cellular viability; also recorded: not toxic | virus yield 8 days after drug removal (HCMV [3]): recovered and produced a normal yield | HCMV replication / virus production (HCMV strain AD169): effectively inhibited virus replication in a dose-dependent manner; also recorded: inhibited virus production in a dose-dependent manner

— patent publication US20180185374A1, “INHIBITORS OF MTOR KINASE AS ANTI-VIRAL AGENTS” (THE TRUSTEES OF PRINCETON UNIVERSITY, priority 2009, published 2018)
